This note sets out measurements from PMC6576746, “Rational discovery of dual-indication multi-target PDE/Kinase inhibitor for precision anti-cancer therapy using structural systems pharmacology” (PLoS Computational Biology, 2019).

Holding throughout (experiment): biochemical
Common to all, as to parameters: DiscoverX KinomeScan competition binding assay across human kinases; per cent of control at 10 and 100 uM

For one assay, the target named is MYLK2 (Homo sapiens, UniProt Q9H1R3). The note with it: competition binding, % of control; read-out: Percent Control (100 uM Levosimendan). Put shortly:
(§1)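 Binding is expressed as %control, normalised between positive and negative control signals. The compound (levosimendan) was tested at 10 μM and 100 μM in the DiscoverX KinomeScan competition binding format against human kinases.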

The target in another assay is AXL (Homo sapiens, UniProt P30530). The conditions noted are these: competition binding, % of control; read-out: Percent Control (100 uM Levosimendan). The method, boiled down: as §1
The next assay has as its target T1, MEK2 (Homo sapiens, UniProt P36507).
T1 construct: gene MAP2K2
The conditions noted are these: competition binding, % of control; read-out: Percent Control (100 uM Levosimendan). The method, boiled down:
as §1

For a further assay, the target named is T2, MINK (Homo sapiens, UniProt Q8N4C8).
T2 construct: gene MINK1
T2 sequence (Q8N4C8 whole entry): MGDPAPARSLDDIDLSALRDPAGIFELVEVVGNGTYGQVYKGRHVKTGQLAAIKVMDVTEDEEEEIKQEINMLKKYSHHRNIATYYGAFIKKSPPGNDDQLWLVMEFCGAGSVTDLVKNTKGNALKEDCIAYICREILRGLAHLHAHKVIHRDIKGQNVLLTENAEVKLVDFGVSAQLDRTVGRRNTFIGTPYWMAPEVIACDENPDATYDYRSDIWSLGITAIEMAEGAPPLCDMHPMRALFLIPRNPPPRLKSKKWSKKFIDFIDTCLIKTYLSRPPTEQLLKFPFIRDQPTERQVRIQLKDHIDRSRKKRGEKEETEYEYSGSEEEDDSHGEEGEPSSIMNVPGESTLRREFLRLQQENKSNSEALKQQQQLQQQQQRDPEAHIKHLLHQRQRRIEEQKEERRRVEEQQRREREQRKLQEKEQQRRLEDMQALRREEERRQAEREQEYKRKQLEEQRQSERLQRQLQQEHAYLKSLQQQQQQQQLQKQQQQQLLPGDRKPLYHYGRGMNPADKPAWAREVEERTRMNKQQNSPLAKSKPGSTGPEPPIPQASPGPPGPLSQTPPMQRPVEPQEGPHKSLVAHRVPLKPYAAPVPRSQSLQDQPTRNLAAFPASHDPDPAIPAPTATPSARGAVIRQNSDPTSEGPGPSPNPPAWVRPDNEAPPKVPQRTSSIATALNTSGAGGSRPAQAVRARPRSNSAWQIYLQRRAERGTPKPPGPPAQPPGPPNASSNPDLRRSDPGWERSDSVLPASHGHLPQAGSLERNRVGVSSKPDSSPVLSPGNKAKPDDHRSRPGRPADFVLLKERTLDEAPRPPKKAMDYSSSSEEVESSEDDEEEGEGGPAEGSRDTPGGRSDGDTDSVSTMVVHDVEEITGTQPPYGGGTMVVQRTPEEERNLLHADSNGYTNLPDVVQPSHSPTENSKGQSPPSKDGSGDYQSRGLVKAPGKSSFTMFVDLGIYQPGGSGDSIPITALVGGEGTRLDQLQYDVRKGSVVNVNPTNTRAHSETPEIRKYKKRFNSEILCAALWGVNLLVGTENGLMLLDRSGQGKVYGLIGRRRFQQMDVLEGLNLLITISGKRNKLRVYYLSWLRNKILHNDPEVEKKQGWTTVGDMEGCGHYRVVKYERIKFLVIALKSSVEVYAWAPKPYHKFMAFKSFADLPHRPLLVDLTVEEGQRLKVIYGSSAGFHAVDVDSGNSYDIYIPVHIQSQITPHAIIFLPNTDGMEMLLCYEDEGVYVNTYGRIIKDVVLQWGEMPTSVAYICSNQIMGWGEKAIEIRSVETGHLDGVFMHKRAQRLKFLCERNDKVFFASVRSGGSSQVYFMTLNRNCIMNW
The note with it: competition binding, % of control. The method, boiled down:
as §1

In assay [1] the target is T3, ABL1(F317L)-nonphosphorylated (Homo sapiens, UniProt P00519, F317L).
T3 construct: nonphosphorylated
The note with it: competition binding, % of control; read-out: Percent Control (100 uM Levosimendan). The method, boiled down:
as §1

The target in another assay is T4, NDR1 (Homo sapiens, UniProt Q15208).
T4 construct: gene STK38
The conditions noted are these: competition binding, % of control; read-out: Percent Control (100 uM Levosimendan). Put shortly:
as §1

Another assay concerns the target PDGFRA (Homo sapiens, UniProt P16234). The conditions noted are these: competition binding, % of control. The method, boiled down:
as §1

A further assay addresses TSSK1B (Homo sapiens, UniProt Q9BXA7). The conditions noted are these: competition binding, % of control; read-out: Percent Control (100 uM Levosimendan). The method, boiled down: as §1
In the next assay the target is PAK3 (Homo sapiens, UniProt O75914). The note with it: competition binding, % of control; read-out: Percent Control (100 uM Levosimendan). The method, boiled down: as §1
The next assay has as its target TLK1 (Homo sapiens, UniProt Q9UKI8). The conditions noted are these: competition binding, % of control; read-out: Percent Control (100 uM Levosimendan). Put shortly:
as §1

The target in a further assay is NEK7 (Homo sapiens, UniProt Q8TDX7). The note with it: competition binding, % of control; read-out: Percent Control (100 uM Levosimendan). The method, boiled down: as §1
The target in assay [2] is T5, RSK1(Kin.Dom.2-C-terminal) (Homo sapiens, UniProt Q15418).
T5 construct: gene RPS6KA1; Kin.Dom.2-C-terminal
The note with it: competition binding, % of control; read-out: Percent Control (100 uM Levosimendan). Put shortly: as §1

For another assay, the target named is PIM1 (Homo sapiens, UniProt P11309). The note with it: competition binding, % of control; read-out: Percent Control (100 uM Levosimendan). The method, boiled down: as §1
The target in a further assay is ALK(L1196M) (Homo sapiens, UniProt Q9UM73, L1196M). The note with it: competition binding, % of control; read-out: Percent Control (100 uM Levosimendan). The method, boiled down: as §1
The target in the next assay is CDK9 (Homo sapiens, UniProt P50750). The conditions noted are these: competition binding, % of control; read-out: Percent Control (100 uM Levosimendan). Put shortly:
as §1

For a further assay, the target named is LCK (Homo sapiens, UniProt P06239). The note with it: competition binding, % of control. The method, boiled down: as §1
LCK, sequence (P06239 whole entry): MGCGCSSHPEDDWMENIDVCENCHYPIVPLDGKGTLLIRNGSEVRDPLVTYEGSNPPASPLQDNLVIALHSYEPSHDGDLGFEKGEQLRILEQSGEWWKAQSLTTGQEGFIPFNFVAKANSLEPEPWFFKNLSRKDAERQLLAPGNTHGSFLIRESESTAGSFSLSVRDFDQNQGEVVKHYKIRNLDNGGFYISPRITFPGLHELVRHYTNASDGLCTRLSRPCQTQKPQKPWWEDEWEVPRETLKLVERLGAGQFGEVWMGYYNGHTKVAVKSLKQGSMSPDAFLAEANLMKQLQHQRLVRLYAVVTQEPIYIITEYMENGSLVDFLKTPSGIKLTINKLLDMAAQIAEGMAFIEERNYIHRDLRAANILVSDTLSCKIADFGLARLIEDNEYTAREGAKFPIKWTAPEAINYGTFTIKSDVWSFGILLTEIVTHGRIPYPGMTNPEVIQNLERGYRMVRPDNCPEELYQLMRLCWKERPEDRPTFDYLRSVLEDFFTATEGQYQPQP
Another assay concerns the target KIT-autoinhibited (Homo sapiens, UniProt P10721). The conditions noted are these: competition binding, % of control. The method, boiled down: as §1
In the next assay the target is TIE1 (Homo sapiens, UniProt P35590). The conditions noted are these: competition binding, % of control; read-out: Percent Control (100 uM Levosimendan). The method, boiled down:
as §1

[3] abbreviates: read-out: Percent Control (10 uM Levosimendan).
[4] abbreviates: read-out: Percent Control (100 uM Levosimendan).

KIT-autoinhibited, sequence (P10721 whole entry): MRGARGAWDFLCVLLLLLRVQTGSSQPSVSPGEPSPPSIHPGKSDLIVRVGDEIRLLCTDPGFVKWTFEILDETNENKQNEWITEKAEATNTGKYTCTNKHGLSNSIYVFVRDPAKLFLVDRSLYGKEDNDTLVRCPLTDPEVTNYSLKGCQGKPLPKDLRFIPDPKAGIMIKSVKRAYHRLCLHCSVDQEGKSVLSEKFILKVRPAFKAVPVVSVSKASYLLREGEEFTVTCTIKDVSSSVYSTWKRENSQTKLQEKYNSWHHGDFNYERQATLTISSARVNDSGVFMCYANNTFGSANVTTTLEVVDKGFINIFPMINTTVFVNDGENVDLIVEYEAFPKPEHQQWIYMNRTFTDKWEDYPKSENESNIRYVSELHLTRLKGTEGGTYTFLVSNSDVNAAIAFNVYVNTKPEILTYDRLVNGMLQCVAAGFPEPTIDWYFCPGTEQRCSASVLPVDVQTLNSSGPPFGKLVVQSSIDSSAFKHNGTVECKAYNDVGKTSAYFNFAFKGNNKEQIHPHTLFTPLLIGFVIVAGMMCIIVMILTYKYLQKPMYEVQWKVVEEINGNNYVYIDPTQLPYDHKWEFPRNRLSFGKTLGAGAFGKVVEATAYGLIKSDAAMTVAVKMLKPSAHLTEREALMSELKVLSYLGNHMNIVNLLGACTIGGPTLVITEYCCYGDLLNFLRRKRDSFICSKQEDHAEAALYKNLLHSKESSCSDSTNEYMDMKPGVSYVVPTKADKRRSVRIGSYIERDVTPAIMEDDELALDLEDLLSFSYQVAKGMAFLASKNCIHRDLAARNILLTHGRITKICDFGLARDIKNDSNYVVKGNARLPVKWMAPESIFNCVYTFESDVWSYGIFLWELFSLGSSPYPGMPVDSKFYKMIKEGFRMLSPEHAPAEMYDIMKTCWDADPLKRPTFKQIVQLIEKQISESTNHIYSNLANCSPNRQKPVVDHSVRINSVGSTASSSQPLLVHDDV
PDGFRA, sequence (P16234 whole entry): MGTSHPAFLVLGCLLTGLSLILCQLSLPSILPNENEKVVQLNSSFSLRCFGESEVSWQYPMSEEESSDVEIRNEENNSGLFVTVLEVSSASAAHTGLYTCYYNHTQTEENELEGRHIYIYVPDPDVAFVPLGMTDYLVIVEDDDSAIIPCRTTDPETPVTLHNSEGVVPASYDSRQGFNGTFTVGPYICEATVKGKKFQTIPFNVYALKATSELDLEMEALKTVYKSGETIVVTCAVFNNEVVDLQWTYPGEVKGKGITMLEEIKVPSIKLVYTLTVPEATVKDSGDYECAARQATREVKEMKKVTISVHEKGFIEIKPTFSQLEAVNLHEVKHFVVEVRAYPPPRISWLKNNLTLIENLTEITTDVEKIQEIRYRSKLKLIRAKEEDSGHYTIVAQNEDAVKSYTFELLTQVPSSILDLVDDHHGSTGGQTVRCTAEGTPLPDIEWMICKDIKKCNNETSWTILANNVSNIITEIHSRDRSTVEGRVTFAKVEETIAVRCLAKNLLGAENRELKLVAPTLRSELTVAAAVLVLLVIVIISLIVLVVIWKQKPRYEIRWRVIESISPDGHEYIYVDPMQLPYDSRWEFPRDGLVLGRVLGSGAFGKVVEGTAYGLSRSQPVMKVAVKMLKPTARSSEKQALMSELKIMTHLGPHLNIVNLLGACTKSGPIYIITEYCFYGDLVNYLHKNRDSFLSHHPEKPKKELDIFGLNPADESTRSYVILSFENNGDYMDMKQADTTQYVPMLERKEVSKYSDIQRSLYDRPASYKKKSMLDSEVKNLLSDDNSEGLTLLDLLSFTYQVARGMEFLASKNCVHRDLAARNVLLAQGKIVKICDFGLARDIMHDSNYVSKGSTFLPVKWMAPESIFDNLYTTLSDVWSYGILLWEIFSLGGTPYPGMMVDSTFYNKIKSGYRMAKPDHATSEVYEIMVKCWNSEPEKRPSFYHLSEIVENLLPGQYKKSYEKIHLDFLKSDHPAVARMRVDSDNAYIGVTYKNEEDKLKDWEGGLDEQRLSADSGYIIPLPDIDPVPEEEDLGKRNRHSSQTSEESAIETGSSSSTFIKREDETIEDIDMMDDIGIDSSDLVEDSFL
TIE1, sequence (P35590 whole entry): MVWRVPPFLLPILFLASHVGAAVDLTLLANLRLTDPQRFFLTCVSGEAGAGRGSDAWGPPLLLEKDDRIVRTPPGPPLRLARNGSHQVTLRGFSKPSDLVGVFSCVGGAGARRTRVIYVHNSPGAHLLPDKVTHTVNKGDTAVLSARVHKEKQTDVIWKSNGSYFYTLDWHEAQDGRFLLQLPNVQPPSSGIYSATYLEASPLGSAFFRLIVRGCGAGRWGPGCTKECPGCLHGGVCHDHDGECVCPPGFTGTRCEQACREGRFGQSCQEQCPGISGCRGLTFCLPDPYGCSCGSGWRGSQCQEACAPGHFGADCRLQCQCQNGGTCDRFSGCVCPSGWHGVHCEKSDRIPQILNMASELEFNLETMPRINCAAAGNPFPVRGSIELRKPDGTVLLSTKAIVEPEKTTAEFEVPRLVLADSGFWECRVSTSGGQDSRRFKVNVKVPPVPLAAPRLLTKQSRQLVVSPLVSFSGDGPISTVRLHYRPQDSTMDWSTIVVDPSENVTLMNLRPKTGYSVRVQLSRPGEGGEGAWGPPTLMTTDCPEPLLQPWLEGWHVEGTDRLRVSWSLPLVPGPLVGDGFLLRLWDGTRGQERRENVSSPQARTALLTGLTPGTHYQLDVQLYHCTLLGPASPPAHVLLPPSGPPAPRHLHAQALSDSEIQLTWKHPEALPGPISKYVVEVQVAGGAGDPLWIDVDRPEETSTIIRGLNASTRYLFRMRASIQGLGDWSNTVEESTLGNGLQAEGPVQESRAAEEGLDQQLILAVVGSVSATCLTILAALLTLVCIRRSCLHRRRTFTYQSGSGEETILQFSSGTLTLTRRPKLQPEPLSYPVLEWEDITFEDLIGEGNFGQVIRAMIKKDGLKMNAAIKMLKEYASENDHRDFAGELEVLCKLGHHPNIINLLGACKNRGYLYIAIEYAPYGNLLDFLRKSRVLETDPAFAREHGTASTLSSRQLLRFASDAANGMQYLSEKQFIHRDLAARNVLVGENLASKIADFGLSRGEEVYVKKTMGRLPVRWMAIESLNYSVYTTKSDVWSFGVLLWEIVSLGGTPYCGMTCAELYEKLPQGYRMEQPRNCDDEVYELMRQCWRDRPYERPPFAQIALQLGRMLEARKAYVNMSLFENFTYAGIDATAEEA

As to `C[C@@H]1CC(=O)NN=C1c1ccc(NN=C(C#N)C#N)cc1` [levosimendan], the remaining binding at 100 µM turned out to be 81% on MYLK2; 83% at AXL; 70% on MEK2; 26% on MINK (setting [4]); 100% in assay [1]; 62% at NDR1. Moreover, the remaining binding at 100 µM amounted to 37% at PDGFRA (setting [4]); 85% on TSSK1B; 99% on PAK3; 100% at TLK1; 100% on NEK7; 100% in [2]. Also, the remaining binding at 100 µM on PIM1 amounted to 64%; at ALK(L1196M), 72%; at CDK9 it was 100%; on LCK (setting [4]), 46%; on KIT-autoinhibited (setting [4]), 52%; at TIE1 it was 100%. Also, the remaining binding at 10 µM was determined as 77% on MINK (setting [3]), 73% on PDGFRA (setting [3]), 89% on LCK (setting [3]) and 76% on KIT-autoinhibited (setting [3]).
